Results reported in patent publication US10730851B2, “Polymorph of triaryldimethylpiperazine dihydrochloride and preparation method and application thereof” (priority 2016, dated 2020).
Counter-ions that a name gives are not always drawn. Like-named read-outs stand apart in the source and are kept apart here.

Tests used:
[1] = Dynamic solubility test in water, SGF, FeSSIF, FaSSIF; format: physicochemical; settings: for pH in clear solution: dihydrochloride; for Solubility: thermodynamic from solid
Protocol: The dynamic solubility of a free base, polymorph forms B, P, F, J and O in water or a biological medium such as Stimulated Gastric Fluid (SGF), Fed State Simulated Intestinal Fluid (FeSSIF) or Fasted State Simulated Intestinal Fluid (FaSSIF) is determined.
0.2 g sodium chloride and 0.1 g Triton X-100 is weighed and placed into a 100 mL volumetric flask. Purified water is added to dissolve. A stir is performed until the solid is completely dissolved. About 135 μL concentrated hydrochloric acid solution (37%, […]) is added, then the pH is adjusted to 1.8 with […] hydrochloric acid or 1 mmoL/L sodium hydroxide. Finally, the volume is fixed with purified water to obtain Stimulated Gastric Fluid (SGF) for later use.
Each of 0.41 mL glacial acetic acid, 0.20 g sodium hydroxide and 0.59 g sodium chloride is weighed and placed to a 50 mL volumetric flask. About 48 mL purified water is added to dissolve, the pH is adjusted to 5.0 with 1 mmoL/L hydrochloric acid or 1 mmoL/L sodium hydroxide, and the volume is fixed with purified water. Then 0.56 g of Simulated Intestinal Fluid powder (SIF powder for short, which is composed of […] with a molar ratio of 4:1) is added, stirred and ultrasonically dissolved to obtain Fed State Simulated Intestinal Fluid (FeSSIF) for later use.
Each of 0.17 g of anhydrous sodium dihydrogen phosphate (NaH2PO4), 0.021 g of sodium hydroxide and 0.31 g of sodium chloride is weighed and placed into a 50 mL volumetric flask. About 48 mL of purified water is added to dissolve, the pH is adjusted to 6.5 with 1 mmoL/L hydrochloric acid or 1 mmoL/L sodium hydroxide, and the volume is fixed with purified water. 0.11 g of SIF powder is added, stirred and ultrasonically dissolved to obtain Fasted State Simulated Intestinal Fluid (FaSSIF) for later use.
Each 30 mg of the free base, and polymorph forms B, P, F, J and O are weighed. 3 mL of purified water, Stimulated Gastric Fluid (SGF), Fed State Simulated Intestinal Fluid (FeSSIF) or Fasted State Simulated Intestinal Fluid (FaSSIF)) is added and oscillated at room temperature. 0.6 mL of suspension is taken each time at a set time point, filtered and separated with a 0.45 μm nylon filter membrane, then XRPD characterization is performed on the solid sample, and the concentration in the clear solution is measured by HPLC.

SPF-grade SD rats = test: Forced swimming test; format: in vivo; settings: for Behavior duration, Static / Behavior duration, Swimming / Behavior duration, Wall climbing / Number of behaviors, Static / Number of behaviors, Swimming / Number of behaviors, Wall climbing: x ± SEM
Protocol: Forced swimming test is used to test the antidepressant effects of polymorph forms P, F, O, B and J.
the swimming test equipment is a transparent glass round cylinder with a height of 46 cm and an inner diameter of 20 cm, the test water temperature is 23° C.˜25° C., the test water depth is 30 cm, and each cylinder is used only once.
300 mg of a polymorph form P is weighed with an electronic balance, and the polymorph form P is dissolved with 0.9% normal saline, and finally the volume is fixed to 100 mL with 0.9% normal saline, at this time, the concentration of dihydrochloride in the experimental reagent is 3 mg/mL for later use.
600 mg of a polymorph form P is weighed with an electronic balance, and the polymorph form P is dissolved with 0.9% normal saline, and finally the volume is fixed to 100 mL with 0.9% normal saline, at this time, the concentration of dihydrochloride in the experimental reagent is 6 mg/mL for later use.
400 mg of desipramine (DMI) is weighed with an electronic balance, DMI is dissolved with 0.9% normal saline, and then the volume is fixed to 100 mL with 0.9% normal saline for later use.
Forty SPF-grade SD rats are prepared and randomly divided into 4 groups, namely vehicle control group, positive control group, experimental group 1 and experimental group 2, with 10 rats in each group. The day before the test, the rats were placed in water for 15 min to pre-swim for 15 min in advance to adapt to the swimming test environment, then taken out and dried, placed in the cage under an infrared lamp for 15 min and then placed in the original cage. After 24 h, a formal swimming test is conducted, that is, the rats are put into water again after 24 h, and the rats are continuously observed for 5 min. The swimming process are needed to be photographed. The drug is administered during two swimming sessions.
The positive control group containing DMI is administered three times, at 23.5 h, 5 h and 1 h before the formal swimming test respectively. Vehicle control group, experimental group 1 and experimental group 2 are each administered only once and subcutaneously within 1 h.
The behaviors of the rats are scored by the scorer every 5 seconds after recording the experiment.
1) Static—when the rat floats on the water surface without struggling and moves only to keep its head above the water surface, the rat is evaluated as static;
2) Swimming—if the rats have obvious swimming behaviors, not only to keep their heads above the water surface, or to travel around in a round cylinder, they are evaluated as swimming;
3) Wall climbing—the rats' front paws have obvious behavior of entering and leaving the water surface, usually, rats are evaluated as wall climbing in front of the round cylinder wall.
All behavioral are scored by a single person. To avoid bias of observation, the scorer only observed and scored without knowing the administration situations. Then multiple test fragments are randomly selected, and the scorer will score the second round to determine the accuracy of observation. The test video is scored again by the second scorer to determine the accuracy between scorers. The second scorer are also required to observe without knowing the drug administration. Finally, in order to determine the effectiveness of the method, the first scorer scored again and recorded the duration of various behaviors with a stopwatch.
SPSSwin11.0 software is used for variance analysis. One-way variance analysis is used for homogeneity of variance, and Dunnett test is used for heterogeneity of variance.

[2] = Experiment group 1, 30 mg/kg Sc once
[3] = Experiment group 2, 60 mg/kg Sc once

For `CC1CCN(C(=O)c2ccc([C@H](c3cccc(O)c3)N3C[C@@H](C)N(Cc4cccc(F)c4)C[C@@H]3C)cc2)CC1` [Polymorph form P, (4-((R)-((2S,5R)-4-(3-fluorobenzyl)-(2,5-dimethylpiperazine-1-yl)(3-hydroxyphenyl)methyl)phenyl)(4-methylpiperidine-1-yl)methanone dihydrochloride], which “solubility compared with the free base” value [1] is on record?
Its value is “significantly improved”.

And the “pH in clear solution” value ([1]; FaSSIF, Time 1)?
The value was 3.0.

And the “pH in clear solution” value ([1]; FaSSIF, Time 2)?
Its value is 2.7.

And the “pH in clear solution” value ([1]; FaSSIF, Time 4)?
The value was 2.2.

What about the “pH in clear solution” value ([1]; FaSSIF, Time 24) of the same compound?
The value was 2.6.

And the “pH in clear solution” value ([1]; FeSSIF, Time 1)?
The value was 5.0.

And the “pH in clear solution” value ([1]; FeSSIF, Time 2)?
Its value is 4.9.

What about the “pH in clear solution” value ([1]; FeSSIF, Time 4) of the same compound?
The value was 5.0.

And the “pH in clear solution” value ([1]; FeSSIF, Time 24)?
Its value is 4.6.

And the “pH in clear solution” value ([1]; SGF, Time 1)?
The value was 1.6.

And the “pH in clear solution” value ([1]; SGF, Time 2)?
Its value is 1.7.

What about the “pH in clear solution” value ([1]; SGF, Time 4) of the same compound?
Its value is 1.6.

And the “pH in clear solution” value ([1]; SGF, Time 24)?
Its value is 1.5.

And the “pH in clear solution” value ([1]; Water, Time 1)?
Its value is 1.9.

And the “pH in clear solution” value ([1]; Water, Time 2)?
The value was 1.9.

What about the “pH in clear solution” value ([1]; Water, Time 4) of the same compound?
The value was 1.9.

And the “pH in clear solution” value ([1]; Water, Time 24)?
Its value is 1.6.

What about the “Crystal form of insoluble solid sample” value ([1]; pH 1.8) of the same compound?
The value was “invariability”.

What about the “solubility compared with the free base” value ([1]; pH 1.8) of the same compound?
Its value is “close to or slightly improved”.

What about the Solubility ([1]; pH 1.8, simulated gastric fluid) of the same compound?
Its Solubility is 3400 µg/mL.

And the “Crystal form of insoluble solid sample” value ([1]; pH 5)?
The value was “invariability”.

What about the Solubility ([1]; pH 5, fessif) of the same compound?
Its Solubility is 430 µg/mL.

What about the “Crystal form of insoluble solid sample” value ([1]; pH 6.5) of the same compound?
The value was “invariability”.

And the “Behavior duration, Static” value (SPF-grade SD rats; [2])?
The value was 45.5 ± 7.5 s.

And the “Behavior duration, Swimming” value (SPF-grade SD rats; [2])?
The value was 142.5 ± 21.5 s.

And the “Behavior duration, Wall climbing” value (SPF-grade SD rats; [2])?
The value was 114.0 ± 19.0 s.

And the “Number of behaviors, Static” value (SPF-grade SD rats; [2])?
The value was 9.1 ± 1.5 times.

And the “Number of behaviors, Swimming” value (SPF-grade SD rats; [2])?
The value was 28.5 ± 4.3 times.

And the “Number of behaviors, Wall climbing” value (SPF-grade SD rats; [2])?
Its value is 22.8 ± 3.8 times.

What about the “Behavior duration, Static” value (SPF-grade SD rats; [3]) of the same compound?
The value was 88.5 ± 8.0 s.

And the “Behavior duration, Swimming” value (SPF-grade SD rats; [3])?
Its value is 122.0 ± 14.0 s.

And the “Behavior duration, Wall climbing” value (SPF-grade SD rats; [3])?
The value was 91.0 ± 5.5 s.

What about the “Number of behaviors, Static” value (SPF-grade SD rats; [3]) of the same compound?
The value was 17.7 ± 1.6 times.

And the “Number of behaviors, Swimming” value (SPF-grade SD rats; [3])?
The value was 24.4 ± 2.8 times.

And the “Number of behaviors, Wall climbing” value (SPF-grade SD rats; [3])?
Its value is 18.2 ± 1.1 times.

And the “antidepressant effect in forced swimming test (in words)” value (SPF-grade SD rats; rats, dihydrochloride)?
Its value is “better antidepressant effect”.
